In patent US6656709B1, “Methods of increasing the production of cobalamins using cob gene expression” (priority 1990, dated 2003):

Key:
[1] = target: T1, P. denitrificans NN:DMBI PRT (Sinorhizobium sp, UniProt P29935); assay: Specificity of NN:DMBI PRT for benzimidazole substrates; type: biochemical, Pseudomonas denitrificans; settings: NaMN concentration fixed at 2 mM
T1 construct: the amino-terminal methionine is definitely excised in vivo by methionine aminopeptidase; made in house; host or cells: Pseudomonas denitrificans SC510 Rif^r carrying plasmid pXL1490B (cobU and cobV amplified)
T1 sequence (P29935 2-338 limits assumed): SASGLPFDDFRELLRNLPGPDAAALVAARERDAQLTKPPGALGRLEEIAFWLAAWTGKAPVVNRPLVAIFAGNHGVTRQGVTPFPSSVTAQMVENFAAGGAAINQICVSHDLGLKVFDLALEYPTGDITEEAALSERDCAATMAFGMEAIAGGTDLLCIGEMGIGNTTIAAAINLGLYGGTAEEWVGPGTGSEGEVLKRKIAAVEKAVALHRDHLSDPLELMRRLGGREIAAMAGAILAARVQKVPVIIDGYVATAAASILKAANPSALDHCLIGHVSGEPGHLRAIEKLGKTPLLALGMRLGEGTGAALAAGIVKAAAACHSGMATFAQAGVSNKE
Description: a) Assay of Nicotinate-nucleotide:dimethylbenzimidazole phosphoribosyltransferase activity (FIG. 5, reaction 5). This example illustrates the assay of an enzymatic activity directly linked to the pathway of biosynthesis of cobalamins. The enzyme in question is nicotinate-nucleotide:dimethylbenzimidazole phosphoribosyl-transferase (NN:DMBI PRT) (EC 2.4.2.21). The fractions containing NN:DMBI PRT activity (approximately 5 units) are incubated at 30° C. for 8 min in 0.1 M glycine-NaOH buffer pH 9.7 (500 μl) in the presence of 1 mM NaMN (nicotinic acid mononucleotide) and 10 μM DMBI. The reaction is then stopped by heating to 80° C. for 10 min, the reaction mixture is diluted with water (4 volumes) and this solution (100 μl) is injected onto a 15-cm Nucleosil 5-C8 HPLC column eluted with a 0.1 M potassium phosphate pH 2.9/acetonitrile (93:7) mixture at a flow rate of 1 ml/min. The α-ribazole 5′-phosphate is detected and quantified by fluorimetry (excitation: 260 nm; emission >370 nm). The unit of enzymatic activity is defined as the quantity of enzyme necessary for generating 1 nmol of α-ribazole 5′-phosphate per hour under these conditions.
d) Specificity of NN:DBI PRT for DBI. […]

[2] = target: T2, precorrin-6x reductase (Sinorhizobium sp, UniProt P21920); assay: Reaction catalysed by precorrin-6x reductase, cofactor dependence; type: biochemical, Pseudomonas denitrificans
T2 construct: the amino-terminal methionine is definitely excised in vivo by methionine aminopeptidase; made in house; host or cells: Pseudomonas denitrificans SC510 Rif^r carrying plasmid pXL253 (8.7-kb EcoRI fragment, cobF to cobM, in pKT230)
Description: The fractions containing precorrin-6x reductase activity (approximately 0.05 unit, U) are incubated at 30° C. for 60 min in 0.1 M Tris-HCl buffer pH 7.7 (250 μl) in the presence of 1 mM EDTA, 500 μM NADPH, 25 μM [methyl-^3H]SAM (80 μCi/μmol), 4 μM precorrin-6x (Thibaut et al., 1990) and partially purified dihydroprecorrin-6x methylase (0.5 U) (see preparation below). The reaction is then stopped by heating to 80° C. for 5 min and, after centrifugation at 5000×g for 5 min, the supernatant is injected onto a DEAE-Sephadex column (containing 200 μl of gel). The column is then washed extensively with the Tris-HCl buffer, and the compounds bound are eluted with 1 M HCl (4 ml). The radio activity in this eluent is counted by liquid scintillation counting. The unit of enzymatic activity is defined as the quantity of enzyme necessary for reducing 1 nmol of precorrin-6x per h under these conditions.
When the purified enzyme (or an active fraction during purification, or even a crude enzyme extract) is incubated under the conditions of the assay of activity, but in the absence of SAM and of dihydroprecorrin-6x methylase, the product of the reaction can then be purified by HPLC in the system described for the purification of precorrin-6x (see Example 6.1.4.d). […]

[3] = target: T3, cobalamin-5′-phosphate synthase (Sinorhizobium sp, UniProt P29936); assay: Specificity of cobalamin-5′-phosphate synthase; type: biochemical, Pseudomonas denitrificans; settings: partially purified enzyme
T3 construct: made in house; host or cells: Pseudomonas denitrificans SC510 Rif^r carrying plasmid pXL1490B (own cobV gene amplified)
Description: a) Assay of GDP-cobinamide: α-ribazole-5′-phosphate cobinamidephosphotransferase (or cobalamin-5′-phosphate synthase) activity. This example illustrates the assay of an activity directly linked to the pathway of biosynthesis of cobalamines. The enzyme in question is cobalamin-5′-phosphate synthase. The fractions containing the activity (approximately 5 to 10 units) are incubated in darkness at 30° C. in […] buffer pH 9.0 (500 μl) in the presence of 1 mM EDTA, 12.5 mM MgCl2, 50 μM α-ribazole 5′-phosphate and 20 μM GDP-cobinamide [in 5′-deoxy-5′-adenosyl (Ado) or coenzyme form]. After 15 min of incubation, 20 mM potassium cyanide (500 μl) is added and the solution is heated to 80° C. for 10 min. After centrifugation to remove the precipitated matter, the vitamin B12 5′-phosphate present in the supernatant is assayed as described in Example 9. One unit of cobalamin-5′-phosphate synthase is defined as the quantity of enzyme necessary for generating 1 nmol of cobalamine 5′-phosphate per h under the conditions described above.
This experiment illustrates how a P. denitrificans enzymatic activity participating in the pathway of biosynthesis of cobalamines of P. denitrificans can be partially purified. Using the assay described above, the purification of cobalamin 5′-phosphate synthase is carried out. For this purpose, in a typical purification experiment, wet cells (10 g) of strain SC510 Rif^r, into which plasmid pXL1490B has been introduced as described previously, are used. Plasmid pXL1490B is described in FIG. 38: this plasmid corresponds to the 3.85-kb SstI-SstI-BamHI fragment cloned into PKT230. This plasmid carries the P. denitrificans cobU and cobV genes. […] The SC510 Rif^r pXL1490B cells are obtained by culture in PS4 medium supplemented with lividomycin, as described above. […]
c) Specificity of cobalamin-5′-phosphate synthase. […] Intracellular α-ribazole 5′-phosphate and α-ribazole concentrations of 30 and 700 μM, respectively, were measured by HPLC during the production of cobalamins by SC510 Rif^r in PS4 medium under the culture conditions described in Example 6.1.5a).

[4] = target: T4, Methanobacterium ivanovii SUMT (Methanobacterium ivanovii, UniProt P29564); assay: Catalytic properties of purified M. ivanovii SUMT; type: biochemical
T4 construct: endogenous in cells; host or cells: Methanobacterium ivanovii DSM2611 (enzyme purified to homogeneity from the natural organism)
T4 sequence (P29564 2-231 limits assumed): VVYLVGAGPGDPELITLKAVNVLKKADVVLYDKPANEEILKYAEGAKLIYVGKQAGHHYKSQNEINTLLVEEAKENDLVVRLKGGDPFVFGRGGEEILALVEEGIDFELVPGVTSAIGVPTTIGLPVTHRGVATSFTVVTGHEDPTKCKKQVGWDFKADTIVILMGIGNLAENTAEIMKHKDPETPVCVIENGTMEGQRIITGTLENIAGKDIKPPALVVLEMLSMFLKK
Description: Methanobacterium ivanovii strain DSM2611 is cultured as described (Souillard et al., 1988). Wet cells (12 g) are obtained. The latter are resuspended in 0.1 M Tris-HCl buffer pH 7.6 (80 ml) containing 5 mM DTT and 1 mM EDTA, and sonicated for 1 h 30 min at 4° C. and then centrifuged for 1 h at 50,000 g. Free tetrapyrrole compounds are then cleared from the extract by passage through a small DEAE-Sephadex A25 column set up in the same buffer. The proteins precipitating at between 55 and 75% ammonium sulphate saturation are solubilised in a 0.1 M Tris-HCl pH 7.5, 0.5 mM DTT, 1.7 M ammonium sulphate buffer and injected onto a Phenyl-Superose HR 10/10 (Pharmacia France/SA) column eluted with a decreasing gradient (1.7 M to 0 M with respect to ammonium sulphate). The active fractions are passed through a Sephadex G-25 column equilibrated with 0.1 M Tris-HCl pH 7.5, 0.5 mM DTT, 25% glycerol buffer (buffer A), then injected onto a Mono Q HR 5/5 (Pharmacia France SA) column equilibrated with buffer A and eluted with a KCl gradient of 0 to 0.3 M; this step is repeated a second time under the same conditions. Gel permeation chromatography of the active fraction of the preceding step on Bio-Sil TSK-250 (BioRad France SA) enables a protein which is homogeneous in SDS-PAGE and in RP-HPLC (C-18 pBondapak) to be obtained. The different steps of purification, with their yield, as well as their purification factor, are described in the table below.
As shown in this table, the total purification factor is more than 4,500. Some properties of the pure enzyme have been studied according to methods already described (Blanche et al., 1989). This enzyme does indeed have SUMT activity, i.e. it does indeed catalyse the SAM-dependant transfer of two methyl groups at C-2 and at C-7 of uro'gen III.
The Vmax of M. ivanovii SUMT was determined. It is 1537 U/mg of proteins. This value is greater than that found for P. denitrificans SUMT, already determined under optimal conditions for the reaction (taking account of its inhibition by uro'gen III), 489 U/mg of proteins (Blanche et al., 1989).

T3 sequence (P29936 whole entry): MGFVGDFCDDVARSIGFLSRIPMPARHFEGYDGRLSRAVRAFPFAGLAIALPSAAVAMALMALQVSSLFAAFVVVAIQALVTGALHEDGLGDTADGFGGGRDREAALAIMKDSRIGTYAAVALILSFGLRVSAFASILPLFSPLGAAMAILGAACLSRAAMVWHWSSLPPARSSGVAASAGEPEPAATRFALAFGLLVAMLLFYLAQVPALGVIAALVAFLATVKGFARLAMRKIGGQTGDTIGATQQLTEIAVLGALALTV
T2 sequence (P21920 2-261): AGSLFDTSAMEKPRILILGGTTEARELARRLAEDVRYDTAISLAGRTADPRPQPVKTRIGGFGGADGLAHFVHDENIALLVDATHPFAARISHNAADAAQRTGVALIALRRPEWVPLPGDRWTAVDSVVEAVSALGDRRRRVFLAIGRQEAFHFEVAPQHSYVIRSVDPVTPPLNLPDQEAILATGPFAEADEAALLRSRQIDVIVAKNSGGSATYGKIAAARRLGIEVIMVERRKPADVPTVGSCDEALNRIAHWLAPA

`Cc1ccc2nc[nH]c2c1` [5-methylbenzimidazole] was tested, and the “reaction rate compared to the natural substrate (5,6-dimethylbenzimidazole)” value [1] was 92%.

With `c1ccc2[nH]cnc2c1` [Benzimidazole] the “reaction rate compared to the natural substrate (5,6-dimethylbenzimidazole)” value [1] was 157%.

For `NC(=O)C1=CN([C@@H]2O[C@H](COP(=O)(O)OP(=O)(O)OC[C@H]3O[C@@H](n4cnc5c(N)ncnc54)[C@H](O)[C@@H]3O)[C@@H](O)[C@H]2O)C=CC1` [NADH], the “cofactor for reduction of precorrin-6x” value [2] was “NADPH cannot be replaced by NADH”.

In the case of `NC(=O)C1=CN([C@@H]2O[C@H](COP(=O)(O)OP(=O)(O)OC[C@H]3O[C@@H](n4cnc5c(N)ncnc54)[C@H](OP(=O)(O)O)[C@@H]3O)[C@@H](O)[C@H]2O)C=CC1` [NADPH], the “cofactor for reduction of precorrin-6x” value [2] is reported as “strictly NADPH-dependant”.

Molecule `Cc1cc2ncn([C@H]3O[C@H](COP(=O)(O)O)[C@@H](O)[C@H]3O)c2cc1C` [α-ribazole 5′-phosphate] has a Km [3] of ~2.7 µM.

With `Cc1cc2ncn([C@H]3O[C@H](CO)[C@@H](O)[C@H]3O)c2cc1C` [α-ribazole] the Km [3] was 7.8 µM.

With GDP-cobinamide [(Ado)GDP-cobinamide] the Km [3] was 0.9 µM.

B1: M. ivanovii SUMT: SAM:uro'gen III methyltransferase purified from Methanobacterium ivanovii, encoded by corA (protein)
chain: MVVYLVGAGPGDPELITLKAVNVLKKADVVLYDKPANEEILKYAEGAKLIYVGKQAGHHYKSQNEINTLLVEEAKENDLVVRLKGGDPFVFGRGGEEILALVEEGIDFELVPGVTSAIGVPTTIGLPVTHRGVATSFTVVTGHEDPTKCKKQVGWDFKADTIVILMGIGNLAENTAEIMKHKDPETPVCVIENGTMEGQRIITGTLENIAGKDIKPPALVVLEMLSMFLKK
With B1 the Vmax [4] was 1537 U/mg of proteins.
